In assay [1] the test system is MK-801 induced hyperactivity behavior. In words: MK-801 induced hyperactivity behavior in mice. The assay is classed as in vivo, ICR mice. The conditions noted are these: for ED50: Mus musculus, read-out: ED50 (half effective dose). How it is done: The efficacy of the compounds of the present disclosure was evaluated by high activity model of mice induced by intraperitoneal injection of MK-801.
Experimental animals: ICR mice, male, 8 mice/group, Spelford (Beijing) Biotechnology Co., Ltd.
Preparation of drug: the test compounds were taken, and pure water was added, and ultrasonication was performed.
Administration route and method: gavage administration, 10 mL/kg (body weight).
Administration frequency and duration: single dose.
Animals were stratified by body weight and then randomly divided into blank group, model group, and administration group, and detailed information of administration is shown in the following table.
Mice were stratified according to body weight and then randomly divided into model group, blank group and each administration group. One hour after the gavage administration of solvent or drug, 0.3 mg/kg MK-801 was injected intraperitoneally (the blank group was injected with the same volume of physiological saline), and then the mice were put into an independent activity box (a black polyethylene box with the specification of 29 cm×29 cm×30 cm) for video recording for 60 minutes, and video analysis was performed at the end of the recording to evaluate the activity of the mice.
The experimental data were expressed as x±SD, and SPSS statistical software was used to test the homogeneity of variance. If the variance was homogeneous, single factor analysis of variance was performed, and Dunnett t test is used for pairwise comparison. The ED50 was calculated by nonlinear fitting with GraphPad Primis5 software.

The target of assay [2] is T1, 5-HT2A receptor (Homo sapiens, UniProt P28223).
T1 construct: expressed in transfected cells
T1 sequence (P28223 whole entry): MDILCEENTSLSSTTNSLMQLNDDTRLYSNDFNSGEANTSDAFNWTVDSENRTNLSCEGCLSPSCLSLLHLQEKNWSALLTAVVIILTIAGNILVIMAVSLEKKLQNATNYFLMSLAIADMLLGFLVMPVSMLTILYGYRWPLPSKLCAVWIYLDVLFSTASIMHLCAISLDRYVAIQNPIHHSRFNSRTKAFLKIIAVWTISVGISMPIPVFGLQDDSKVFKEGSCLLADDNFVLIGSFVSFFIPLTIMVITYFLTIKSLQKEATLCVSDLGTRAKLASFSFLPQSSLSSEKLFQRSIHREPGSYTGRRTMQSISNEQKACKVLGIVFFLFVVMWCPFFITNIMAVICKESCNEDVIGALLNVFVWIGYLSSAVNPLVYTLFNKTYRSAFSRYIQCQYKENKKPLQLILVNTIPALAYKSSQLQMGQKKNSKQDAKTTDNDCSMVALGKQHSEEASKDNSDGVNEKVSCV
In words: Functional detection experiment of 5-HT2A receptor (cultured cells), calcium influx assay. It counts as cell-based. The source says:
The antagonistic effect of the compound of the present disclosure on the 5-HT2A receptor was detected by a calcium influx assay at the cellular level.
• (1) Test compounds: compounds of the embodiments of the present disclosure, self-made. • (2) Control compound: serotonin hydrochloride 5-hydroxytryptamine (Sigma, H9523), Ketanserin (Targetmol, T1066). • (3) Stable cell line:
• (1) Preparation of test compounds: the compounds of the embodiments of the present disclosure were respectively dissolved in DMSO to prepare 10 mM mother liquor, and the mother liquor was stored in the nitrogen cabinet for later use. • (2) Preparation of control compound: the control compound was dissolved in DMSO to prepare 10 mM mother liquor, and the mother liquor was repackaged and stored in the refrigerator at -80° C. for later use. • (3) Preparation of 250 mM probenecid solution: 1 mL experimental buffer was added into a tube containing 77 mg powder, and the powder was dissolved by vortex oscillation. • (4) Preparation of 2× fluorescent probe solution: a bottle of fluorescent probe dry powder was taken out to balance to room temperature, and 10 mL of experimental buffer solution and 200 μL of 250 mM probenecid solution were added thereto, and the mixture was scrolled and let stand for 5 minutes to ensure complete dissolution. • (5) Experimental buffer HBSS: HBSS and HEPES were mixed evenly in a ratio of 50:1, stored in a refrigerator at 4° C., and heated at 37° C. when used.
• (1) Cells were taken out from the liquid nitrogen tank and melted in a water bath at 37° C. The surface of the cryopreservation tube was wiped with 75% alcohol and put in the biosafety cabinet. • (2) The cell suspension was transferred to a 15 mL centrifuge tube with 4 mL preheated plating medium, and the tube was centrifuged at 1000 rpm for 5 minutes. • (3) The supernatant was discarded, and 10 mL of plating medium was added and blown gently, and the mixture was transferred to a culture dish for growth. After the cells had adhered to the wall for 24 hours, they were replaced with growth medium for continuous culture.
• (1) The logarithmic growth cells was taken and the cells grew to about 85%-90%. The cells were performed the following operations: cell cleaning, digestion, termination, then transferred to a 15 mL centrifuge tube, and the tube was centrifuged at room temperature at 1000 rpm for 5 minutes. • (2) The supernatant was discarded, and a certain plating medium was added and blown gently. 20 μL of cell suspension was taken out and counted. • (3) Cells were diluted to 1×10^6 cells/mL and 20 μL of cell suspension was added to each well of the cell plate (Greiner-781946), so that the density of each well is 2×10^4 cells/well. • (4) The cell plate was incubated in an incubator with 5% CO2 at 37° C. for 16-24 hours. […]

[3] abbreviates: male ICR mice, single gavage dose 1 h before MK-801 0.3 mg/kg i.p., activity recorded 60 min.
[4] abbreviates: cultured CHO-K1/5-HT2A cells, calcium influx (FLIPR), antagonist mode vs agonist EC80, read-out: 5-HT2A IC50.

Structures are written as SMILES. pIC50: −log10 of the molar value. Where two headings read alike, the source gives them in different places.

Three compounds from patent publication US20230339949A1, “HETEROCYCLIC SUBSTITUTED FUSED y-CARBOLINE DERIVATIVE, PREPARATION METHOD THEREFOR, INTERMEDIATE THEREOF AND USE THEREOF” (SHUJING BIOPHARMA CO., LTD, priority 2020, published 2023) can be followed below.

A word on the ED50: it is the dose at which the effect has come halfway, by size or by number of responders. For orientation: pIC50 means −log10 of the IC50, conventionally taken in molar units. Consider `CN1C(=O)CN2c3c1cccc3C1(C)CN(CCCC(=O)c3ccc(F)cc3)CCC21` (stereo not drawn) [Embodiment 1, 8-(4-(4-fluorophenyl)-4-oxobutyl)-3,6b-dimethyl-6b,7,8,9,10,10a-hexahydro-1H-pyrido[3′,4′:4,5]pyrrolo[1,2,3-de]quinoxalin-2(3H)-one], for which the ED50 in assay [1] is 0.11 mg/kg. The “MED (lowest effective dose)” value in assay [1] (setting [3]) is reported as 0.1 mg/kg. Also, the pIC50 in assay [2] is 8.43.

`CN1C(=O)CN2c3c1cccc3[C@]1(C)CN(CCCC(=O)c3ccc(F)cc3)CC[C@H]21` [Embodiment 1-A, (6bR,10aS)-8-(4-(4-fluorophenyl)-4-oxobutyl)-3,6b-dimethyl-6b,7,8,9,10,10a-hexahydro-1H-pyrido[3′,4′:4,5]pyrrolo [1,2,3-de]quinoxalin-2(3H)-one]: in assay [1] (setting [3]), the ED50 worked out at 0.08 mg/kg and the “MED (lowest effective dose)” value is 0.03 mg/kg. Besides, in assay [2] (setting [4]), the pIC50 is 9.11.

Turning to `CN1CCN2c3c(cccc31)[C@@H]1CN(CCCC(=O)c3ccc(F)cc3)CC[C@@H]12` [ITI-007, Lumateperone, reference compound], in assay [1] (setting [3]), the median effective dose (ED50) turned out to be 1.03 mg/kg and the “MED (lowest effective dose)” value was 1 mg/kg. Moreover, the pIC50 in assay [2] (setting [4]) was 8.47.
